Test results reported in paper PMC6803849, “Biodistribution of Nanostructured Lipid Carriers in Mice Atherosclerotic Model” (Molecules, 2019).

Key:
Test in all cases: MMP inhibition assay with fluorogenic substrate
Format in all cases: biochemical
hMMP-10 = target: T1, hMMP-10 (Homo sapiens, UniProt P09238)
T1 construct: purchased R&D Systems
Description: (§1) The binding capacity of the RXP470.1 ligand grafted on RXP-NLC surface was first assessed through an inhibition assay in the presence of a fluorogenic substrate. The affinity and selectivity profile of RXP-NLC was determined on a set of eight human MMPs and compared to the parent ligand.
(§2) Affinity and selectivity profile of RXP-NLC were determined toward a set of 8 human MMPs. Human MMP-8, -9, -12, and -13 were produced at CEA in Saclay according to a procedure previously reported. Other MMPs were purchased from R&D Systems (Minneapolis, MN, USA). MMP inhibition assays were carried out in 50 mM Tris-HCl buffer, pH = 6.8, 10 mM CaCl2 at 25 °C as previously described. Pro-MMPs were pre-activated by p-aminophenylmercuric acetate following the method described by R&D Systems. Titration experiments were carried out to determine the active enzyme concentration for each MMP prior to the assay. Continuous kinetic assays were performed by recording the fluorescence increase induced by the cleavage of fluorogenic substrates (Mca-Pro-Leu- Gly-Leu-Dpa-Ala-Arg-NH2 for MMP-1, -2, -7, -8, -9, -10, -12, -13, and -14 and Mca-Arg-Pro-Lys-Pro- Val-Glu- Nva-Trp-Arg-LysDNP-NH2 for MMP-3). A typical experiment was performed in 200 μL of Tris buffer containing 0.2–0.5 nM of MMP, and a 4.5 μM concentration of fluorogenic substrates. Black, flat-bottomed, 96-well non-binding surface plates (Corning-Costar, Schiphol-RijK, Netherlands) were used for these tests. Fluorescence signals were monitored using a Fluoroskan Ascent photon counter spectrophotometer (Thermo-Labsystems, Courtaboeuf, France) equipped with a temperature control device and a plate shaker. […] Ki values were determined using the method proposed by Horovitz and Leviski.

hMMP-12 = target: T2, hMMP-12 (Homo sapiens, UniProt P39900)
T2 construct: made in house
T2 sequence (P39900 106-470): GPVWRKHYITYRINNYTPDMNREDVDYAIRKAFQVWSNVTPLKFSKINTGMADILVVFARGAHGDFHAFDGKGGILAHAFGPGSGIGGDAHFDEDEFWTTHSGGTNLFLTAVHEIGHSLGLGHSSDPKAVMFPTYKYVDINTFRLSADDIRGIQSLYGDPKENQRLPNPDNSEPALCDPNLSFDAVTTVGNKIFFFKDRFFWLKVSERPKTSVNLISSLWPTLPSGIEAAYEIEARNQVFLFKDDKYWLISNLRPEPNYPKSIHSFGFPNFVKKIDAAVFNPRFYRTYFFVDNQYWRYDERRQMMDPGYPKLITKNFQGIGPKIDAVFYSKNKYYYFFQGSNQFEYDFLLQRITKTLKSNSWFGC
Description: as §1, §2

hMMP-13 = target: T3, hMMP-13 (Homo sapiens, UniProt P45452)
T3 construct: made in house
Description: as §1, §2

hMMP-14 = target: T4, hMMP-14 (Homo sapiens, UniProt P50281)
T4 construct: purchased R&D Systems
Description: as §1, §2

hMMP-2 = target: T5, hMMP-2 (Homo sapiens, UniProt P08253)
T5 construct: purchased R&D Systems
T5 sequence (P08253 110-660): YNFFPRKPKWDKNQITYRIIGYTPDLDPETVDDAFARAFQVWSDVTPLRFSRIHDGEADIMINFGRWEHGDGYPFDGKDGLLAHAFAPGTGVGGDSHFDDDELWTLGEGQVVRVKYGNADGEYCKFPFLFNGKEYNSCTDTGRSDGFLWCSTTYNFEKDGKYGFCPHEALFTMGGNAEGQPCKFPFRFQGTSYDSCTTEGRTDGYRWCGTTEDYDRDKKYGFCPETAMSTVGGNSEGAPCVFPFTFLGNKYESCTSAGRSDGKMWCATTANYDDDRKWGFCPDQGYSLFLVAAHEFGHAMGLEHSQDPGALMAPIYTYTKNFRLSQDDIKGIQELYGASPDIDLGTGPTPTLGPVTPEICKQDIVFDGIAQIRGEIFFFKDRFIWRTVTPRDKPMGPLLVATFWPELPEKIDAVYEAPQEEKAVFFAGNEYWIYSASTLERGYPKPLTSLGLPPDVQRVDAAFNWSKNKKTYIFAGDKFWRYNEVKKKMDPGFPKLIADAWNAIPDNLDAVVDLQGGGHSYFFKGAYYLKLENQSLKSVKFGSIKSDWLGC
Description: as §1, §2

hMMP-3 = target: T6, hMMP-3 (Homo sapiens, UniProt P08254)
T6 construct: purchased R&D Systems
T6 sequence (P08254 100-477): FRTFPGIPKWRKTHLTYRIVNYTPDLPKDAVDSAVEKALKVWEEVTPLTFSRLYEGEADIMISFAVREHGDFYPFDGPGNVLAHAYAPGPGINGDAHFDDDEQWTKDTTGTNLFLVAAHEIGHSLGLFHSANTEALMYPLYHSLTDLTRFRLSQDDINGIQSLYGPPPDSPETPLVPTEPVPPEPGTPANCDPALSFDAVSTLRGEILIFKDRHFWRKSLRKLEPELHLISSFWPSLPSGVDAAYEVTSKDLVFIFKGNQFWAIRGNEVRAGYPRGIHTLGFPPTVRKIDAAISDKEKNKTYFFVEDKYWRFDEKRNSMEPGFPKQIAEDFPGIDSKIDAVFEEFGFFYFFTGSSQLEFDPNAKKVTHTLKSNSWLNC
Description: as §1, §2

hMMP-8 = target: T7, hMMP-8 (Homo sapiens, UniProt P22894)
T7 construct: made in house
T7 sequence (P22894 101-467): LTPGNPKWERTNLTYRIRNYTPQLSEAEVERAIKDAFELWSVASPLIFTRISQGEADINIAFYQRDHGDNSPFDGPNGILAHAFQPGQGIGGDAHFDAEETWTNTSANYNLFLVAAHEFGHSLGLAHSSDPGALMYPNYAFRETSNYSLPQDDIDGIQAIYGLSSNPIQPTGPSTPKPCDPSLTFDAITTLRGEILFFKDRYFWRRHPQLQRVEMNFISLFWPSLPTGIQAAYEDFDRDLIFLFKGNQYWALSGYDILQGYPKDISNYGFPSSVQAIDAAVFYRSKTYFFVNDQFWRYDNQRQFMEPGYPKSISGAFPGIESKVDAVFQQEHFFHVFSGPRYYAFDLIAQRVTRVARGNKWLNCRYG
Description: as §1, §2

hMMP-9 = target: T8, hMMP-9 (Homo sapiens, UniProt P14780)
T8 construct: made in house
T8 sequence (P14780 94-707): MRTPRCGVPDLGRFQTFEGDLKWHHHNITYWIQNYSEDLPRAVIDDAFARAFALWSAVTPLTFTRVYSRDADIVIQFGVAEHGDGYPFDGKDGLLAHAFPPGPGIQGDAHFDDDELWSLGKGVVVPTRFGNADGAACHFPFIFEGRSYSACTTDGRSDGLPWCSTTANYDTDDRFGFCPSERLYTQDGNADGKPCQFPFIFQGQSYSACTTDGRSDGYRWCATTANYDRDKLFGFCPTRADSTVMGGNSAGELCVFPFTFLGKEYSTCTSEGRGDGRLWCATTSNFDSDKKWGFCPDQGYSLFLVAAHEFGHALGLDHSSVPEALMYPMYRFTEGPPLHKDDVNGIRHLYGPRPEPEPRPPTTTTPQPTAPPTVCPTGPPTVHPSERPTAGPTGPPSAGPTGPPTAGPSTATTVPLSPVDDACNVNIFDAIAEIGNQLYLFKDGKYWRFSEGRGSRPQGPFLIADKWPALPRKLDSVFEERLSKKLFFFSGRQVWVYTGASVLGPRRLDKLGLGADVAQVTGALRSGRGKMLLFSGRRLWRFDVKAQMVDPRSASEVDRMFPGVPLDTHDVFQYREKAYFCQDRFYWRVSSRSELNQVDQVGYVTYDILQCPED
Description: as §1, §2

T1 sequence (P09238 99-476): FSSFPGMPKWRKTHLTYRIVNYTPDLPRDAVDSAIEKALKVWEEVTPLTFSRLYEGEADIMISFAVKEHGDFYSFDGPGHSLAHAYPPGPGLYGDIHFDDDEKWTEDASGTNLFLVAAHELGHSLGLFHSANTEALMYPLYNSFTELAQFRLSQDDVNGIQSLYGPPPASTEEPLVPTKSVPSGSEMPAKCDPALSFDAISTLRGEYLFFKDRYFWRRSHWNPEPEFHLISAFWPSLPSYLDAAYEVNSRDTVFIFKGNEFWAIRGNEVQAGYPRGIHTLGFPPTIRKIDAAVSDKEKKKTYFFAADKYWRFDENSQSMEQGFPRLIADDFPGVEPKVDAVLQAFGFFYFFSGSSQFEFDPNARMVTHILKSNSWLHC

Q: Which results are given for `NC(=O)[C@H](CCC(=O)O)NC(=O)[C@H](CCC(=O)O)NC(=O)[C@H](Cc1cc(-c2ccc(-c3cccc(Cl)c3)cc2)no1)CP(=O)(O)c1ccc(Br)cc1` [RXP470.1]?
A: Ki (hMMP-10): 17 ± 2 nM; Selectivity factor hMMP-10 (hMMP-10; relative to hMMP12): 65; Ki (hMMP-12; 50 mM Tris-HCl buffer, pH 6.8, 10 mM CaCl2, 25 °C, mean ± SD of three independent experiments): 0.26 ± 0.05 nM; Selectivity factor hMMP-12 (hMMP-12; relative to hMMP12): 1; Ki (hMMP-13): 11 ± 1 nM; Selectivity factor hMMP-13 (hMMP-13; relative to hMMP12): 42; Ki (hMMP-14): 150 ± 21 nM; Selectivity factor hMMP-14 (hMMP-14; relative to hMMP12): 577; Ki (hMMP-2): 52 ± 4 nM; Selectivity factor hMMP-2 (hMMP-2; relative to hMMP12): 200; Ki (hMMP-3): 80 ± 2 nM; Selectivity factor hMMP-3 (hMMP-3; relative to hMMP12): 308; Ki (hMMP-8): 120 ± 40 nM; Selectivity factor hMMP-8 (hMMP-8; relative to hMMP12): 462; Ki (hMMP-9): 170 ± 50 nM; Selectivity factor hMMP-9 (hMMP-9; relative to hMMP12): 654
